Our source for the IC50 values is US20240109918A1, “HETEROCYCLIC COMPOUNDS AND USES THEREOF” (Kumquat Biosciences Inc., priority 2022, published 2024).

In one assay the target is T1, KRASwt (Homo sapiens, UniProt P01116).
T1 construct: made in house; host or cells: E. coli BL21 (DE3)
Description: Bio-Biochem-PPI-HTRF Ras-SOS1 interaction assay (KRAS wt). Particulars: 5 nM. It counts as biochemical. A digest of the protocol: (§1)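 HTRF readout (ex 337 nm; em 620 and 665 nm) after ≥~10 min incubation; IC50 fitted from 665/620 ratio. GST-K-Ras wt or G12D plus anti-GST-Eu(K), His-hSOS1 plus anti-6His-XL665; duplicate dilutions, 10 μM top.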
(TR-FRET usually uses a lanthanide donor and a delayed reading to cut background.)

Another assay addresses T2, KRASG12D (Homo sapiens, UniProt P01116, G12D).
T2 construct: made in house; host or cells: E. coli BL21 (DE3)
Description: Bio-Biochem-PPI-HTRF Ras-SOS1 interaction assay (KRAS G12D). It counts as biochemical. Particulars: 5 nM. A digest of the protocol: as §1

T1 sequence (P01116 1-188 isoform P01116-2): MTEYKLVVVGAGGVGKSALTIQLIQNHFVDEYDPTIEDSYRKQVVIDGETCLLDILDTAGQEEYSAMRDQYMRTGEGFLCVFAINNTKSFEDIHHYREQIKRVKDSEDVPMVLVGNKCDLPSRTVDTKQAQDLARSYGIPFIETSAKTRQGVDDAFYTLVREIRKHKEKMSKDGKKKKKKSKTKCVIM
T2 sequence (P01116 1-188 isoform P01116-2 G12D): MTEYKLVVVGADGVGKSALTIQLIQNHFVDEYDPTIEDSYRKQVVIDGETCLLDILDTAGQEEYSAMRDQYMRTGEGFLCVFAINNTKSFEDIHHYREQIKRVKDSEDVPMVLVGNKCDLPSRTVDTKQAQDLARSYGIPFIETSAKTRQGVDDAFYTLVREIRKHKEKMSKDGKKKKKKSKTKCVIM

With `N#Cc1c(N)sc2c(F)ccc(-c3c(Cl)cc4c(N5CCCCC6(CN(C(=O)C(F)(F)C(F)(F)F)C6)C5)nc(OC[C@@]56CCCN5C[C@H](F)C6)nc4c3F)c12` [compound 202, 2-amino-4-(6-chloro-8-fluoro-2-(((2R,7aS)-2-fluorotetrahydro-1H-pyrrolizin-7a(5H)-yl)methoxy)-4-(2-(2,2,3,3,3-pentafluoropropanoyl)-2,6-diazaspiro[3.6]decan-6-yl)quinazolin-7-yl)-7-fluorobenzo[b]thiophene-3-carbonitrile], the IC50 on KRASwt and on KRASG12D was < 5 µM throughout.

For `N#Cc1c(N)sc2c(F)ccc(-c3c(Cl)cc4c(N5CCCCC6(CN(C(=O)C7(CC(F)F)CC7)C6)C5)nc(OC[C@@]56CCCN5C[C@H](F)C6)nc4c3F)c12` [compound 227, 2-amino-4-(6-chloro-4-(2-(1-(2,2-difluoroethyl)cyclopropane-1-carbonyl)-2,6-diazaspiro[3.6]decan-6-yl)-8-fluoro-2-(((2R,7aS)-2-fluorotetrahydro-1H-pyrrolizin-7a(5H)-yl)methoxy)quinazolin-7-yl)-7-fluorobenzo[b]thiophene-3-carbonitrile], the IC50 against KRASwt and against KRASG12D was < 5 µM throughout.

`N#Cc1c(N)sc2c(F)ccc(-c3c(Cl)cc4c(N5CCCCC6(CN(C(=O)C78CC(F)(C7)C8)C6)C5)nc(OC[C@@]56CCCN5C[C@H](F)C6)nc4c3F)c12` [compound 199, 2-amino-4-(6-chloro-8-fluoro-4-(2-(3-fluorobicyclo[1.1.1]pentane-1-carbonyl)-2,6-diazaspiro[3.6]decan-6-yl)-2-(((2R,7aS)-2-fluorotetrahydro-1H-pyrrolizin-7a(5H)-yl)methoxy)quinazolin-7-yl)-7-fluorobenzo[b]thiophene-3-carbonitrile]: the IC50 against KRASwt and on KRASG12D was < 5 µM each time.

`C[C@H]1CN(C(=O)N2CC3(CCCCN(c4nc(OC[C@@]56CCCN5C[C@H](F)C6)nc5c(F)c(-c6ccc(F)c7sc(N)c(C#N)c67)c(Cl)cc45)C3)C2)CCO1` [compound 285, 2-amino-4-(6-chloro-8-fluoro-2-(((2R,7aS)-2-fluorotetrahydro-1H-pyrrolizin-7a(5H)-yl)methoxy)-4-(2-((S)-2-methylmorpholine-4-carbonyl)-2,6-diazaspiro[3.6]decan-6-yl)quinazolin-7-yl)-7-fluorobenzo[b]thiophene-3-carbonitrile]: the IC50 against KRASwt and at KRASG12D was < 5 µM throughout.

On to `N#Cc1c(N)sc2c(F)ccc(-c3c(Cl)cc4c(N5CCCCC6(CN(C(=O)C[C@H]7CCOC7)C6)C5)nc(OC[C@@]56CCCN5C[C@H](F)C6)nc4c3F)c12` [compound 304, 2-amino-4-(6-chloro-8-fluoro-2-(((2R,7aS)-2-fluorotetrahydro-1H-pyrrolizin-7a(5H)-yl)methoxy)-4-(2-(2-((R)-tetrahydrofuran-3-yl)acetyl)-2,6-diazaspiro[3.6]decan-6-yl)quinazolin-7-yl)-7-fluorobenzo[b]thiophene-3-carbonitrile], for which the IC50 against KRASwt and against KRASG12D was < 5 µM in each case.

For `N#Cc1c(N)sc2c(F)ccc(-c3c(F)c4nc(OC[C@@]56CCCN5C[C@H](F)C6)nc(N5CCCCC6(CNC6)C5)c4c(=O)n3C3CC3)c12` [compound 198, 2-amino-4-(6-cyclopropyl-8-fluoro-2-(((2R,7aS)-2-fluorotetrahydro-1H-pyrrolizin-7a(5H)-yl)methoxy)-5-oxo-4-(2,6-diazaspiro[3.6]decan-6-yl)-5,6-dihydropyrido[4,3-d]pyrimidin-7-yl)-7-fluorobenzo[b]thiophene-3-carbonitrile], the IC50 against KRASwt and against KRASG12D was < 5 µM each time.

In the case of `C#CN1CCC2(CCN(c3nc(OC[C@@]45CCCN4C[C@H](F)C5)nc4c(F)c(-c5ccc(F)c6sc(N)c(C#N)c56)c(Cl)cc34)C2)C1=O` (stereo partly drawn) [compound 225, 2-amino-4-(6-chloro-4-(7-ethynyl-6-oxo-2,7-diazaspiro[4.4]nonan-2-yl)-8-fluoro-2-(((2R,7aS)-2-fluorotetrahydro-1H-pyrrolizin-7a(5H)-yl)methoxy)quinazolin-7-yl)-7-fluorobenzo[b]thiophene-3-carbonitrile], the IC50 against KRASwt and against KRASG12D was < 5 µM throughout.

Take `Nc1nc2c(-c3c(Cl)cc4c(N5CCNCC56CNC6)nc(OCC56CCCN5C[C@H](F)C6)nc4c3F)ccc(F)c2s1` (stereo partly drawn) [compound 226, 4-(6-chloro-8-fluoro-2-(((2R)-2-fluorotetrahydro-1H-pyrrolizin-7a(5H)-yl)methoxy)-4-(2,5,8-triazaspiro[3.5]nonan-5-yl)quinazolin-7-yl)-7-fluorobenzo[d]thiazol-2-amine]: the IC50 against KRASwt and on KRASG12D was ≥ 5 µM throughout.

For `N#Cc1c(N)sc2c(F)ccc(-c3c(Cl)cc4c(N5CCCCC6(CN(C(=O)C[C@@H]7CCOC7)C6)C5)nc(OC[C@@]56CCCN5C[C@H](F)C6)nc4c3F)c12` [compound 259, 2-amino-4-(6-chloro-8-fluoro-2-(((2R,7aS)-2-fluorotetrahydro-1H-pyrrolizin-7a(5H)-yl)methoxy)-4-(2-(2-((S)-tetrahydrofuran-3-yl)acetyl)-2,6-diazaspiro[3.6]decan-6-yl)quinazolin-7-yl)-7-fluorobenzo[b]thiophene-3-carbonitrile], the IC50 at KRASwt and at KRASG12D was < 5 µM throughout.

On to `N#Cc1c(N)sc2c(F)ccc(-c3c(Cl)cc4c(N5CCN(CC6CC6)C6(CN(C(=O)C(F)F)C6)C5)nc(OC[C@@]56CCCN5C[C@H](F)C6)nc4c3F)c12` [compound 346, 2-amino-4-(6-chloro-4-(5-(cyclopropylmethyl)-2-(2,2-difluoroacetyl)-2,5,8-triazaspiro[3.5]nonan-8-yl)-8-fluoro-2-(((2R,7aS)-2-fluorotetrahydro-1H-pyrrolizin-7a(5H)-yl)methoxy)quinazolin-7-yl)-7-fluorobenzo[b]thiophene-3-carbonitrile], for which the IC50 at KRASwt and against KRASG12D was < 5 µM throughout.

In the case of `N#Cc1c(N)sc2c(F)ccc(-c3c(Cl)cc4c(N5CCCCC6(CN(C(=O)CC7CCO7)C6)C5)nc(OC[C@@]56CCCN5C[C@H](F)C6)nc4c3F)c12` (stereo partly drawn) [compound 203, 2-amino-4-(6-chloro-8-fluoro-2-(((2R,7aS)-2-fluorotetrahydro-1H-pyrrolizin-7a(5H)-yl)methoxy)-4-(2-(2-(oxetan-2-yl)acetyl)-2,6-diazaspiro[3.6]decan-6-yl)quinazolin-7-yl)-7-fluorobenzo[b]thiophene-3-carbonitrile], the IC50 at KRASwt and on KRASG12D was < 5 µM each time.

For the compound `N#Cc1c(N)sc2c(F)ccc(-c3c(Cl)cc4c(N5CC(F)(F)CCC6(CN(C(=O)[C@@H]7CC7(F)F)C6)C5)nc(OC[C@@]56CCCN5C[C@H](F)C6)nc4c3F)c12` [compound 232, 2-amino-4-(6-chloro-4-(2-((S)-2,2-difluorocyclopropane-1-carbonyl)-8,8-difluoro-2,6-diazaspiro[3.6]decan-6-yl)-8-fluoro-2-(((2R,7aS)-2-fluorotetrahydro-1H-pyrrolizin-7a(5H)-yl)methoxy)quinazolin-7-yl)-7-fluorobenzo[b]thiophene-3-carbonitrile], the IC50 at KRASwt and on KRASG12D was < 5 µM in each case.

Turning to `N#Cc1c(N)sc2c(F)ccc(-c3c(Cl)cc4c(N5CCCCC6(CN(C(=O)C78COCC7C8)C6)C5)nc(OC[C@@]56CCCN5C[C@H](F)C6)nc4c3F)c12` (stereo partly drawn) [compound 333, 4-(4-(2-(3-oxabicyclo[3.1.0]hexane-1-carbonyl)-2,6-diazaspiro [3.6]decan-6-yl)-6-chloro-8-fluoro-2-(((2R,7aS)-2-fluorotetrahydro-1H-pyrrolizin-7a(5H)-yl)methoxy)quinazolin-7-yl)-2-amino-7-fluorobenzo[b]thiophene-3-carbonitrile], the IC50 against KRASwt and on KRASG12D was < 5 µM each time.

For the compound `N#Cc1c(N)sc2c(F)ccc(-c3c(Cl)cc4c(N5CCCC6(CN(C(=O)N7CC[C@H]7C#N)C6)C5)nc(OC[C@@]56CCCN5C[C@H](F)C6)nc4c3F)c12` [compound 211, (2S)-1-(6-(7-(2-amino-3-cyano-7-fluorobenzo[b]thiophen-4-yl)-6-chloro-8-fluoro-2-(((2R,7aS)-2-fluorotetrahydro-1H-pyrrolizin-7a(5H)-yl)methoxy)quinazolin-4-yl)-2,6-diazaspiro[3.5]nonane-2-carbonyl)azetidine-2-carbonitrile], the IC50 against KRASwt and against KRASG12D was < 5 µM in each case.

Turning to `N#Cc1c(N)sc2c(F)ccc(-c3c(Cl)cc4c(N5CCCCC6(CN(C(=O)C7(C(F)F)CC7)C6)C5)nc(OC[C@@]56CCCN5C[C@H](F)C6)nc4c3F)c12` [compound 276, 2-amino-4-(6-chloro-4-(2-(1-(difluoromethyl)cyclopropane-1-carbonyl)-2,6-diazaspiro[3.6]decan-6-yl)-8-fluoro-2-(((2R,7aS)-2-fluorotetrahydro-1H-pyrrolizin-7a(5H)-yl)methoxy)quinazolin-7-yl)-7-fluorobenzo[b]thiophene-3-carbonitrile], the IC50 at KRASwt and on KRASG12D was < 5 µM throughout.

As to `N#Cc1c(N)sc2c(F)ccc(-c3c(Cl)cc4c(N5CCCCC6(CN(C(=O)C7CC7C(F)(F)F)C6)C5)nc(OC[C@@]56CCCN5C[C@H](F)C6)nc4c3F)c12` (stereo partly drawn) [compound 311, 2-amino-4-(6-chloro-8-fluoro-2-(((2R,7aS)-2-fluorotetrahydro-1H-pyrrolizin-7a(5H)-yl)methoxy)-4-(2-(2-(trifluoromethyl)cyclopropane-1-carbonyl)-2,6-diazaspiro[3.6]decan-6-yl)quinazolin-7-yl)-7-fluorobenzo[b]thiophene-3-carbonitrile], the IC50 against KRASwt and against KRASG12D was < 5 µM throughout.
